Source: patent US20180110785A1, “METHODS AND COMPOSITIONS FOR AMELIORATING SYMPTOMS ASSOCIATED WITH CHROMOSOMAL ABNORMALITIES” (priority 2014, published 2018)
“And” between values parts separate entries of the source, which are not always exact repeats. Identical values can stand only once. “Also recorded” adds a separate entry of the source. Like-named read-outs stand apart in the source and are kept apart here.

Columns and labels:
Ts65Dn mice [1] = system: Ts65Dn mice; set-up: cerebellar cross-sectional area at the midline and GC density: dose or concentration left out as unconfirmed; details: cited from earlier work
Ts65Dn mice [2] = details: SAG and BrdU co-injected at P0; cited from earlier work
[3] = system: cerebellar Purkinje cells of Ts65Dn and euploid mice; details: cited from earlier work
Ts65Dn mice [4] = details: TsSAG vs EuVeh and TsVeh; cited from earlier work
Ts65Dn mice [5] = details: cited from earlier work
Ts65Dn mice [6] = details: cited from earlier work; remark: listed apart in the source
[7] = system: Schaffer collateral-CA1 synapses of Ts65Dn mice; details: cited from earlier work; for TBS-induced LTP, fEPSP: hippocampal slices from TsSAG mice
[8] = system: Schaffer collateral-CA1 synapses of Ts65Dn mice; details: cited from earlier work
primary GCP cultures = details: compared with Shh-Np; cited from earlier work
Ts65Dn mice [9] = details: SAG-treated mice, first 4 months of life; cited from earlier work
[10] = in vivo; cited from earlier work
[11] = system: Sonic hedgehog (SHH) in nasal mucus; experiment: Sonic hedgehog in nasal mucus of hyposmic patients after oral theophylline, spectrophotometric ELISA; assay type: in vivo, human
[12] = system: patients with smell loss (hyposmia); experiment: Smell function (olfactometry, subjective) in hyposmic patients after oral theophylline; assay type: in vivo, human
[13] = system: Sonic hedgehog (Shh) in parotid saliva; experiment: Sonic hedgehog in parotid saliva of patients with taste dysfunction after oral theophylline (Example 2), ELISA; assay type: in vivo, human; details: for saliva sonic hedgehog after treatment with oral theophylline: mean ± SEM
[14] = system: patients with taste dysfunction; experiment: Subjective taste acuity and flavor perception in hypogeusic patients after oral theophylline (Example 2); assay type: in vivo, human; details: for flavor perception, degree of improvement / taste acuity, degree of improvement: mean ± SEM
Procedure: Shh was measured in parotid saliva of both normal subjects and in patients with taste dysfunction of multiple etiologies by use of a sensitive spectrophotometric ELISA assay. Taste dysfunction was defined clinically by both subjective changes of taste acuity and flavor perception and by impaired gustometry. Patients were treated with oral theophylline 200-800 mg daily for 2-10 months with saliva Shh and taste function measured at intervals of 2-8 months.
Subjective statements of taste acuity loss and loss of flavor perception were quantitated by use of a scale from 0-100 with 100 reflecting total loss of taste acuity or flavor perception, 0 reflecting no loss and a number between 0-100 reflecting appropriate degree of loss. […] Mean±SEM of loss degree was measured among all patients and each pathology initiating taste dysfunction.
Saliva Shh and measurements of taste function by use of subjective responses of acuity and flavor perception and in olfactometry was measured at intervals of 2-6 months in these patients.

[15] = system: Sonic hedgehog (Shh) in parotid saliva; experiment: Saliva sonic hedgehog in patients with taste dysfunction after oral theophylline (Example 3), ELISA; assay type: in vivo, human
[16] = system: patients with smell loss (hyposmia); details: prior hyposmic patients treated with oral theophylline (earlier studies); cited from earlier work
[17] = system: patients with taste dysfunction; experiment: Gustometry (DT, RT, ME for four tastants) before and after theophylline (Example 3)
[18] = system: ShhN (sonic hedgehog) in nasal mucus; experiment: ShhN nasal mucus vs PDE inhibitor comparison (Example 10); assay type: in vivo, human
[19] = hippocampal slices from Ts65Dn mice
[20] = patients with taste dysfunction
[21] = theophylline treated (81), mean ± SEM

Structure (SMILES): CNC1CCC(N(Cc2cccc(-c3ccncc3)c2)C(=O)c2sc3ccccc3c2Cl)CC1 (stereo not drawn) [SAG]
- GCP number at P6 (Ts65Dn mice [1]; Ts65Dn mice, SAG subcutaneously on the day of birth): normalized GCP number
- cerebellar cross-sectional area at the midline and GC density (Ts65Dn mice [1]; adult (about 16 weeks) Ts65Dn mice, single injection of SAG on the day of birth): had the same cross-sectional area and GC density as EuVeh; also recorded: normalizes cerebellar morphology in adult Ts65Dn mice
- GCP number at P6 (Ts65Dn mice [1]; euploid mice (EuSAG), single dose of SAG at P0): did not significantly increase GCP number at P6
- dentate gyrus deficit / proliferation at P6 (Ts65Dn mice [2]): Dentate gyrus is not affected by SAG treatment
- depression of EPSC after induction of LTD ([3]; Ts65Dn mice, limited to lobule III, P=0.019): more depression of EPSC after the induction of LTD
- PPR values ([3]; euploid mice, lobule IX, P=0.005): significantly decreased the PPR values measured in lobule IX
- EPSC paired-pulse ratios (PPR) of Purkinje cells ([3]; trisomic mice, lobule III and IX): did not restore the PPR values in trisomic mice
- open-field performance (time in periphery or center) (Ts65Dn mice [4]): no significant differences were observed with TsSAG; also recorded: does not affect open-field performance
- Y maze performance (alternation, arm entrances; words) (Ts65Dn mice [5]; Ts65Dn mice): did not have an effect on either outcome in Ts65Dn mice; also recorded: does not improve Y maze performance in Ts65Dn mice
- Y maze alternation (Ts65Dn mice [5]; TsSAG mice (EuVeh 78%)): 60%
- MWM search strategies (Ts65Dn mice [6]; TsSAG mice): used the same successful strategies as EuVeh; also recorded: normalizes search strategies of Ts65Dn mice in the MWM
- performance in MWM / tasks dependent on hippocampus (Ts65Dn mice [6]; adult Ts65Dn mice, single SAG treatment at P0): normalized performance of adult Ts65Dn mice in the MWM; also recorded: corrects performance of trisomic mice in tasks dependent on hippocampus
- MWM performance (Ts65Dn mice [6]; euploid mice): had no effect on the performance of euploid mice
- TBS-LTP [7, 19]: rescues attenuated TBS-LTP in hippocampal slices from Ts65Dn mice
- TBS-induced LTP, fEPSP ([7]; t=30 min): 132.9±2.2 % of baseline
- TBS-induced LTP, fEPSP ([7]; t=80 min): 127.4±2.0 % of baseline
- NMDA/AMPA ratio ([8]; TsSAG, n=11): 0.19±0.034
- NMDA-EPSCs [8, 19]: partially rescues attenuated NMDA-EPSCs in hippocampal slices from Ts65Dn mice
- mitogenic activity (primary GCP cultures): had mitogenic activity in primary GCP cultures
- tumor formation or complications (Ts65Dn mice [9]): no evidence of tumor formation or obvious complications in the first 4 months of life
- crossing of biological barriers [10]: crosses the gut, the placenta, and the blood-brain barrier; also recorded: penetrates the blood-brain barrier

Structure (SMILES): Cn1c(=O)c2[nH]cnc2n(C)c1=O [Theophylline, theophylline]
- sonic hedgehog concentration in nasal mucus, treatment with oral theophylline ([11]; PIHH patients (10), mean ± SEM): 70735 ± 5751^a,a1 (10) pg/ml
- sonic hedgehog concentration in nasal mucus, treatment with oral theophylline ([11]; all hyposmic patients (30 in Table 3, 31 in Table 4), mean ± SEM): 49191 ± 1710^c,a1 (30) pg/ml and 49191 ± 1710^a (31) pg/ml
- sonic hedgehog concentration in nasal mucus, treatment with oral theophylline ([11]; allergic rhinitis patients (11), mean ± SEM): 24460 ± 2610^a,a1 (11) pg/ml
- sonic hedgehog concentration in nasal mucus, treatment with oral theophylline ([11]; congenital smell loss patients (9), mean ± SEM): 3825 ± 474^a,a1 (9) pg/ml
- sonic hedgehog concentration in nasal mucus, treatment with oral theophylline ([11]; hyposmic men (17), oral theophylline 400-800 mg daily for 2-10 months, mean ± SEM): 47952 ± 3085^a,a1 (17) pg/ml
- sonic hedgehog concentration in nasal mucus, treatment with oral theophylline ([11]; hyposmic women (13), oral theophylline 400-800 mg daily for 2-10 months, mean ± SEM): 3859 ± 303^a,a1 (13) pg/ml
- increase of nasal mucus SHH over the untreated state ([11]; men, oral theophylline): 320 times
- increase of nasal mucus SHH over the untreated state ([11]; patient post anesthesia, oral theophylline): 48 times
- increase of nasal mucus SHH over the untreated state ([11]; patients with PIHH, oral theophylline): 46 times
- increase of nasal mucus SHH over the untreated state ([11]; patients with allergic rhinitis, oral theophylline): over 719 times
- increase of nasal mucus SHH over the untreated state ([11]; patients with congenital smell loss, oral theophylline): over 21 times
- SHH levels in nasal mucus versus untreated state ([11]; patients with hyposmia, oral theophylline): significantly increased SHH levels in nasal mucus
- sonic hedgehog concentration in nasal mucus, treatment with oral theophylline ([11]; post general anesthesia patient (1)): 57 (1) pg/ml
- increase of nasal mucus SHH over the untreated state ([11]; women, oral theophylline): 17 times
- smell improvement, patient number ([12]; PIHH (10)): 8
- smell improvement, percent of patients ([12]; PIHH (10)): 80%
- smell improvement, patient number ([12]; all treated patients (31), oral theophylline): 19
- smell improvement, percent of patients ([12]; all treated patients, oral theophylline): 60% and 61%
- smell improvement, patient number ([12]; allergic rhinitis (11)): 5
- smell improvement, percent of patients ([12]; allergic rhinitis (11)): 45%
- smell improvement, patient number ([12]; congenital (9)): 5
- smell improvement, percent of patients ([12]; congenital (9)): 56%
- smell improvement, patient number ([12]; post general anesthesia (1)): 1
- smell improvement, percent of patients ([12]; post general anesthesia (1)): 100%
- saliva sonic hedgehog after treatment with oral theophylline ([13]; hypogeusic patients after treatment (66), 200-1000 mg, 2-10 months): 199 ± 20 pmol/mL
- saliva sonic hedgehog after treatment with oral theophylline ([13]; men (61) after treatment): 180 ± 15 pmol/mL
- Shh in parotid saliva after oral theophylline [13, 20]: increased saliva Shh; also recorded: increased in parotid saliva to levels above those in normal subjects or in untreated patients
- saliva sonic hedgehog after treatment with oral theophylline ([13]; women (58) after treatment): 213 ± 33 pmol/mL
- patients with improvement in both subjective taste acuity and flavor perception ([14]; after oral theophylline): about 60%
- flavor perception, improvement number ([14]; all patients (79)): 45
- flavor perception, percent improved ([14]; all patients (79)): 63%
- taste acuity, percent improved ([14]; all patients (79)): 63%
- taste acuity, improvement number ([14]; all patients (79), oral theophylline): 45
- flavor perception, degree of improvement ([14]; all patients (79)): 24 ± 4%
- taste acuity, degree of improvement ([14]; all patients (79)): 28 ± 4^+ %
- flavor perception, improvement number ([14]; men (38)): 22
- flavor perception, percent improved ([14]; men (38)): 58%
- taste acuity, improvement number ([14]; men (38)): 21
- taste acuity, percent improved ([14]; men (38)): 55%
- flavor perception, degree of improvement ([14]; men (38)): 18 ± 4%
- taste acuity, degree of improvement ([14]; men (38)): 20 ± 5%
- taste function after theophylline [14, 20]: improved both subjective taste function and gustometry
- flavor perception, improvement number ([14]; women (41)): 23
- flavor perception, percent improved ([14]; women (41)): 54%
- taste acuity, improvement number ([14]; women (41)): 24
- taste acuity, percent improved ([14]; women (41)): 59%
- flavor perception, degree of improvement ([14]; women (41)): 36 ± 6%
- taste acuity, degree of improvement ([14]; women (41)): 35 ± 6%
- saliva sonic hedgehog after oral theophylline ([15]; PIHH (27), mean ± SEM): 210 ± 12 pmol/mL
- saliva sonic hedgehog after oral theophylline ([15]; allergic rhinitis (26), mean ± SEM): 212 ± 14^+ pmol/ml
- saliva sonic hedgehog after oral theophylline ([15]; anesthesia induced (2)): 151 pmol/mL
- saliva sonic hedgehog after oral theophylline ([15]; congenital (10), mean ± SEM): 132 ± 23 pmol/mL
- saliva sonic hedgehog after oral theophylline ([15]; head injury (14), mean ± SEM): 115 ± 15 pmol/mL
- increase of saliva Shh levels by theophylline [15, 20]: ~2 fold
- saliva sonic hedgehog after oral theophylline ([15]; post radiation (1)): 145 pmol/mL
- saliva sonic hedgehog ([15]; theophylline treated patients (81), mean ± SEM): 102 ± 10 pmol/mL
- smell improvement, percent of patients [16]: over 50%
- taste / gustometric function after theophylline [17, 20]: improved subjectively in taste function; also recorded: improved gustometric functions of treated patients
- HCl DT [17, 21]: 3.6 ± 0.2
- HCl ME [17, 21]: 54 ± 5
- HCl RT [17, 21]: 3.7 ± 0.3
- NaCl DT (detection threshold) [17, 21]: 3.4 ± 0.2
- NaCl ME (magnitude estimation) [17, 21]: 58 ± 5
- NaCl RT (recognition threshold) [17, 21]: 3.6 ± 0.2
- sucrose DT [17, 21]: 3.3 ± 0.2
- sucrose ME [17, 21]: 49 ± 5
- sucrose RT [17, 21]: 3.6 ± 0.2
- urea DT [17, 21]: 3.9 ± 0.3
- urea ME [17, 21]: 54 ± 5
- urea RT [17, 21]: 3.9 ± 0.3

Structure (SMILES): O=C1CCc2cc(OCCCCc3nnnn3C3CCCCC3)ccc2N1 [cilostazol]
- sonic hedgehog levels in nasal mucus, mean ([18]; Patient ID No. 7, 100 mg cilostazol once per day orally for 4 months): 769 pg/mL

Structure (SMILES): O=C(Nc1c(Cl)cncc1Cl)c1ccc(OC(F)F)c(OCC2CC2)c1 [roflumilast]
- sonic hedgehog levels in nasal mucus ([18]; Patient ID No. 11, 500 micrograms daliresp (roflumilast) orally once per day for 4 months): 6660 pg/mL
